The values that follow come from US20080234304A1, “N3-Pyridyl-Thiamine And Its Use In Cancer Treatments” (AVEO PHARMACEUTICALS, INC., priority 2004, published 2008).

Structures are written as SMILES.

Experiment [1] deals with T1, alpha-ketoglutarate dehydrogenase (kGDH) (Homo sapiens, UniProt Q02218).
T1 construct: endogenous in cells
T1 sequence (Q02218 41-1023): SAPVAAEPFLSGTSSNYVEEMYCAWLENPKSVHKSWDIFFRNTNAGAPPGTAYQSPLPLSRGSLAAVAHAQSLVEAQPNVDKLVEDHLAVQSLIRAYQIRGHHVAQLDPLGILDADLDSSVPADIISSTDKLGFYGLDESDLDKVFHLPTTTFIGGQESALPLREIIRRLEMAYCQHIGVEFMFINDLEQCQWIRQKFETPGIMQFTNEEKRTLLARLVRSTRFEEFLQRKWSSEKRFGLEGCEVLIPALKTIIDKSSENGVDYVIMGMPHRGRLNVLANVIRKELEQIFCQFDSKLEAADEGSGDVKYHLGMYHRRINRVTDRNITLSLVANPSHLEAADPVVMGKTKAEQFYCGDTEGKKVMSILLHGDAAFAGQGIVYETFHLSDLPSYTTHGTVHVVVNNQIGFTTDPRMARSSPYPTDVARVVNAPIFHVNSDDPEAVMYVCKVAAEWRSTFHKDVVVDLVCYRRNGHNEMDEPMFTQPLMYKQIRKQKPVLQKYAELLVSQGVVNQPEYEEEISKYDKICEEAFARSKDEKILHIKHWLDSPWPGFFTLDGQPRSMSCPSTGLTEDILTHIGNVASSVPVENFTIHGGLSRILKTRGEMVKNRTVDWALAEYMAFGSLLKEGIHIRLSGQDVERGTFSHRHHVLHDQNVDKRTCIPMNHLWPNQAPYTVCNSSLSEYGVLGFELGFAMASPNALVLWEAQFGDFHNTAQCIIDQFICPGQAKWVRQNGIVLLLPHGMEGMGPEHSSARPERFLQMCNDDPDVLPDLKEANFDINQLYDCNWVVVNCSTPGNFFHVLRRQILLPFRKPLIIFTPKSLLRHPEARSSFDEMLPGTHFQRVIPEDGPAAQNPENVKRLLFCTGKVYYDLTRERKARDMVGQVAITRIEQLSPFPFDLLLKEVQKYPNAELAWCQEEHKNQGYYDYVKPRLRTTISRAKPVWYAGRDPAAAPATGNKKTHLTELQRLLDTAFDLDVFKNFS
T1 sequence (P36957 68-453 partner): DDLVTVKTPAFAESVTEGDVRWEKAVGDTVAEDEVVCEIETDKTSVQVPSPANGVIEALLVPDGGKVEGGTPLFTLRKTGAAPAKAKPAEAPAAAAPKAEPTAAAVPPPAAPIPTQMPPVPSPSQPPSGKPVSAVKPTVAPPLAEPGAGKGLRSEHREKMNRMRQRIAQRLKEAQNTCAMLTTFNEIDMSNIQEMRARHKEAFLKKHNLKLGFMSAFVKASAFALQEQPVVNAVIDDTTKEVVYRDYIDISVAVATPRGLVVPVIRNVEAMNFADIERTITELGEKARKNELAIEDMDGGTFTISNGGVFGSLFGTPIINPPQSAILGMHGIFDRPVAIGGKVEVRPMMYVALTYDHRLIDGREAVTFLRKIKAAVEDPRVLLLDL
T1 sequence (P09622 36-509 partner): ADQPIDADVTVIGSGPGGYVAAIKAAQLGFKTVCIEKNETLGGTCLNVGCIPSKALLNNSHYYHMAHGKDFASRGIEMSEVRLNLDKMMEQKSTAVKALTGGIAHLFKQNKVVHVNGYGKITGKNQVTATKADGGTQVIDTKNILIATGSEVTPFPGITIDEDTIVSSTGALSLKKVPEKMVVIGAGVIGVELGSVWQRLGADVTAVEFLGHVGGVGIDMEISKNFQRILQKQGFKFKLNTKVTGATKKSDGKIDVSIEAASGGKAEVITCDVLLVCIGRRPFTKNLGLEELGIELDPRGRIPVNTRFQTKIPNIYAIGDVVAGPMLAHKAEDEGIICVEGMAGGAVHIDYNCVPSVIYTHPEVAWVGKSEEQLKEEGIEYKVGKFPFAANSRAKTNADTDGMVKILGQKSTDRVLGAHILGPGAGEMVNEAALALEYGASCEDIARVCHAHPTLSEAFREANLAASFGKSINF
In words: kGDH activity in extracts from cells incubated with N3PT. It is filed as cell-based. As to conditions: extracts from cells incubated with increasing concentrations of N3PT; read-out: IC50 kGDH (selectivity comparison, FIG. 9). The procedure: TK, kGDH and PDH enzymes all utilize thiamine pyrophosphate (TPP) as a co-factor for their catalysis. Conventional cell culture media (e.g., DMEM, RPMI) have high levels of thiamine (12 μM and 3 μM, respectively). High thiamine levels will mask the inhibitory effect of N3PT. Thus, to measure the IC50 of N3PT, a thiamine depleted DMEM, containing all the ingredients of normal DMEM except for thiamine (HyClone, custom order), was used. Thiamine-depleted media (TDM) is made up with thiamine-depleted DMEM, 10% FBS, which contains low amounts of thiamine (estimated to be ˜3-5 nM) and 1% Penicillin-streptomycin.
Log-phase growing cells were trypsinized and resuspended in TDM. Twenty-four hours after seeding, 5 μl of 20× N3PT compound stock solution was added to the cells in 95 μl of TDM. After increasing times of N3PT treatment, cells were either subjected to enzymatic reactions directly or were frozen at −20° C. for future assays. […] TK activities could be measured from ≧5000 cells in most cell lines tested. […]
Enzymatic inhibition was expressed as percent of control cells that were not treated with compounds. […]

Experiment [2] concerns the target purified apotransketolase. Kind of experiment: inhibition of purified apotransketolase. It is filed as biochemical. An excerpt:
N3PT is a thiamine (vitamin B1) derivative. Thiamine pyrophosphate (TPP) is a co-factor for catalysis by the enzyme transketolase (as well as for the enzymes kGDH and PDH). […] A standard method for isolating and measuring the IC50 of apotransketolase is described in Konig et al., J. Biol. Chem. 269: 10879-82 (1994).

As to `Cc1ccc(C[n+]2csc(CCO)c2C)c(N)n1` [N3PT, 3-[(2-amino-6-methyl-3-pyridinyl)methyl]-5-(2-hydroxyethyl)-4-methyl thiazolium], the concentration for half-maximal inhibition (IC50) in experiment [1] worked out at 86 nM; in experiment [2] it was 21 nM.

As a reminder, the IC50 is the concentration that gives 50% inhibition.
